# Measured values reported in patent US20240025862A1, “SUBSTITUTED N-PHENYLURACILS AND SALTS THEREOF, AND USE THEREOF AS HERBICIDAL ACTIVE SUBSTANCES” (Bayer Aktiengesellschaft, priority 2020, published 2024).
# Key:
# Format in all cases: in vivo
# [1] = tested on: Abutilon theophrasti (ABUTH); experiment: Post-emergence herbicidal action, greenhouse pot test; conditions: Abutilon theophrasti, 504 h, rated visually after about 3 weeks vs untreated controls, 100% = plants have died; for pest or weed control at 1.25 g/ha: read-out: Post-emergence action at 1.25 g/ha against ABUTH in %; for pest or weed control at 5 g/ha: read-out: Post-emergence action at 5 g/ha against ABUTH in %; for pest or weed control at 20 g/ha: read-out: Post-emergence action at 20 g/ha against ABUTH in %
# Outline: (§1)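 Greenhouse-grown weeds in sandy loam were sprayed post-emergence at the one-leaf stage, 2–3 weeks after sowing. Compounds were formulated as WP or EC in water with 0.5% additive at 600 l/ha, at rates of 20 g/ha or less. Visual rating after about 3 weeks used a scale from 0% (like untreated control) to 100% (plants dead).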
# [2] = tested on: Amaranthus retroflexus (AMARE); experiment: as above; conditions: Amaranthus retroflexus, 504 h, rated visually after about 3 weeks vs untreated controls, 100% = plants have died; for pest or weed control at 1.25 g/ha: read-out: Post-emergence action at 1.25 g/ha against AMARE in %; for pest or weed control at 5 g/ha: read-out: Post-emergence action at 5 g/ha against AMARE in %; for pest or weed control at 20 g/ha: read-out: Post-emergence action at 20 g/ha against AMARE in %
# Outline: as §1
# [3] = tested on: Avena fatua (AVEFA); experiment: as above; conditions: Avena fatua, 504 h, 20 g/ha, rated visually after about 3 weeks vs untreated controls, 100% = plants have died, read-out: Post-emergence action at 20 g/ha against AVEFA in %
# Outline: as §1
# [4] = tested on: Lolium rigidum (LOLRI); experiment: as above; conditions: Lolium rigidum, 504 h, dosage 20 g/ha, read-out: Post-emergence action against LOLRI in %
# Outline: as §1
# [5] = tested on: Pharbitis purpurea (PHBPU); experiment: as above; conditions: Ipomoea purpurea, 504 h, read-out: Post-emergence action against PHBPU in %; for pest or weed control at 1.25 g/ha: dosage 1.25 g/ha; for pest or weed control at 5 g/ha: dosage 5 g/ha; for pest or weed control at 20 g/ha: dosage 20 g/ha
# Outline: as §1
# [6] = tested on: Polygonum convolvulus (POLCO); experiment: as above; conditions: Fallopia convolvulus, 504 h, read-out: Post-emergence action against POLCO in %; for pest or weed control at 20 g/ha: dosage 20 g/ha
# Outline: as §1
# [7] = tested on: Veronica persica (VERPE); experiment: as above; conditions: Veronica persica, 504 h, read-out: Post-emergence action against VERPE
# Outline: as §1
# [8] = tested on: Viola tricolor (VIOTR); experiment: as above; conditions: Viola tricolor, 504 h, read-out: Post-emergence action against VIOTR
# Outline: as §1
# [9] = tested on: Alopecurus myosuroides (ALOMY); experiment: Post-emergence herbicidal action, greenhouse pot test (also comparative test C); conditions: Alopecurus myosuroides, 504 h, rated visually after about 3 weeks vs untreated controls, 100% = plants have died; for pest or weed control at 5 g/ha: read-out: Post-emergence action at 5 g/ha against ALOMY in %; for pest or weed control at 20 g/ha: read-out: Post-emergence action at 20 g/ha against ALOMY in %
# Outline: (§2)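 Greenhouse pot plants in sandy loam were sprayed post-emergence at the one-leaf stage (2–3 weeks after sowing) with WP or EC formulations plus 0.5% additive at 600 l/ha water. Activity was rated visually after about 3 weeks versus untreated controls (100% = dead, 0% = like control); rates were 20 g/ha or less, and 5 g/ha or less in the comparative test.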
# [10] = tested on: Echinochloa crus-galli (ECHCG); experiment: as above; conditions: for pest or weed control at 5 g/ha / pest or weed control at 20 g/ha: Echinochloa crus-galli, 504 h, read-out: Post-emergence action against ECHCG in %; for pest or weed control at 5 g/ha: dosage 5 g/ha; for pest or weed control at 20 g/ha: dosage 20 g/ha
# Outline: as §2
# [11] = tested on: Matricaria inodora (MATIN); experiment: as above; conditions: Tripleurospermum inodorum, 504 h, read-out: Post-emergence action against MATIN in %; for pest or weed control at 5 g/ha: dosage 5 g/ha; for pest or weed control at 20 g/ha: dosage 20 g/ha
# Outline: as §2
# [12] = tested on: Setaria viridis (SETVI); experiment: as above; conditions: Setaria viridis, 504 h; for pest or weed control at 20 g/ha: read-out: Post-emergence action against SETVI; for pest or weed control at 1.25 g/ha: dosage 1.25 g/ha; for pest or weed control at 1.25 g/ha / pest or weed control at 5 g/ha: read-out: Post-emergence action against SETVI in %; for pest or weed control at 5 g/ha: dosage 5 g/ha
# Outline: as §2
# [13] = tested on: Glycine max (GLXMA); experiment: Post-emergence crop plant compatibility, greenhouse pot test
# Outline: (§3)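 Percent crop injury was judged by eye roughly three weeks after treatment, relative to untreated plants, where 100% meant death. Application was a post-emergence spray at the one-leaf stage, 600 l/ha water volume with 0.5% additive; letters a, b, c denote differing dose rates.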
# [14] = tested on: Triticum aestivum (TRZAS); experiment: as above; conditions: vs untreated controls
# Outline: as §3
# [15] = tested on: Zea mays (ZEAMX); experiment: as above; conditions: 1.25 g/ha, vs untreated controls
# Outline: as §3
# [16] = tested on: Oryza sativa (ORYSA); experiment: Post-emergence crop plant compatibility, greenhouse pot test (also comparative test C); conditions: vs untreated controls
# Outline: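 Rice and other crops sprayed post-emergence at one-leaf stage (2–3 weeks after sowing) with WP or EC formulations plus 0.5% additive at 600 l/ha water. Visual rating about 3 weeks later versus untreated controls (100% = dead, 0% = like control); suffixes a–c denote different doses.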
Compound,pest or weed control at 1.25 g/ha [1],pest or weed control at 5 g/ha [1],pest or weed control at 20 g/ha [1],pest or weed control at 1.25 g/ha [2],pest or weed control at 5 g/ha [2],pest or weed control at 20 g/ha [2],pest or weed control at 20 g/ha [3],pest or weed control at 20 g/ha [4],pest or weed control at 1.25 g/ha [5],pest or weed control at 5 g/ha [5],pest or weed control at 20 g/ha [5],pest or weed control at 20 g/ha [6],pest or weed control at 1.25 g/ha [7],pest or weed control at 5 g/ha [7],pest or weed control at 20 g/ha [7],pest or weed control at 1.25 g/ha [8],pest or weed control at 5 g/ha [8],pest or weed control at 20 g/ha [8],pest or weed control at 5 g/ha [9],pest or weed control at 20 g/ha [9],other results
"Cn1c(C(F)(F)F)cc(=O)n(-c2cc(Oc3ccccc3OCC(=O)OCC#N)c([N+](=O)[O-])cc2F)c1=O [I.6-176, Cyanomethyl (2-{4-fluoro-5-[3-methyl-2,6-dioxo-4-(trifluoromethyl)-3,6-dihydropyrimidin-1(2H)-yl]-2-nitrophenoxy}phenoxy)acetate]",100%,100%,100%,100%,100%,100%,80%,90%,80%,100%,100%,100%,80%,90%,100%,100%,100%,100%,80%,90%,"Post-emergence action at 1.25 g/ha against ECHCG in % ([10]; 1.25 g/ha, rated visually after about 3 weeks vs untreated controls, 100% = plants have died): 100%; pest or weed control at 5 g/ha [10]: 100%; pest or weed control at 20 g/ha [10]: 100%; pest or weed control at 5 g/ha [11]: 80%; pest or weed control at 20 g/ha [11]: 100%; pest or weed control at 20 g/ha [12]: 100%; pest or weed control at 1.25 g/ha [12]: 100%; pest or weed control at 5 g/ha [12]: 100%; Post-emergence action against GLXMA in % ([13]; 1.25 g/ha): 20%; Post-emergence action against GLXMA in % ([13]; 5 g/ha): 20%; Post-emergence action against TRZAS (crop plant compatibility) ([14]; 1.25 g/ha): 20%; Post-emergence action against TRZAS (crop plant compatibility) ([14]; 5 g/ha): 20%; Post-emergence action against TRZAS (crop plant compatibility) ([14]; 20 g/ha): 20%; Post-emergence action against ZEAMX (crop plant compatibility) [15]: 10%; Post-emergence action against ORYSA (crop plant compatibility) ([16]; 1.25 g/ha): 0%; Post-emergence action against ORYSA (crop plant compatibility) ([16]; 5 g/ha): 20%"
"CC(C#N)OC(=O)COc1ccccc1Oc1cc(-n2c(=O)cc(C(F)(F)F)n(C)c2=O)c(F)cc1Cl (centres unmarked) [I.7-177, 1-Cyanoethyl (2-{2-chloro-4-fluoro-5-[3-methyl-2,6-dioxo-4-(trifluoromethyl)-3,6-dihydropyrimidin-1(2H)-yl]phenoxy}phenoxy)acetate]",100%,100%,100%,100%,100%,100%,80%,80%,90%,100%,100%,100%,90%,100%,100%,100%,100%,100%,90%,100%,pest or weed control at 5 g/ha ([6]; dosage 5 g/ha): 80%; pest or weed control at 5 g/ha [10]: 100%; pest or weed control at 20 g/ha [10]: 100%; pest or weed control at 1.25 g/ha ([11]; dosage 1.25 g/ha): 80%; pest or weed control at 5 g/ha [11]: 80%; pest or weed control at 20 g/ha [11]: 80%; pest or weed control at 20 g/ha [12]: 100%; pest or weed control at 1.25 g/ha [12]: 100%; pest or weed control at 5 g/ha [12]: 100%; Post-emergence action against GLXMA in % ([13]; 1.25 g/ha): 0%; Post-emergence action against TRZAS (crop plant compatibility) ([14]; 1.25 g/ha): 0%; Post-emergence action against ORYSA (crop plant compatibility) ([16]; 1.25 g/ha): 0%
